Tested on: Rat Model of Corneal Injury
Assay: Rat model of corneal injury (corneal epithelial wound closure)
Assay type: in vivo
Details: topical ocular 5 μl every 2 hrs for first 8 hrs, female Lewis rats, compared with positive control 0.4% HA; for normalized number of completely healed eyes (Healed 24 hours n=10): number/10 eyes
Method: Female Lewis rats (175-200 g) were anesthetized with a xylazine/ketamine cocktail (5 mg/kg and 50 mg/kg respectively). A 3 mm diameter circle was superficially demarcated on the central cornea using a 3 mm trephine. Using a corneal rust ring remover (AlgerbrushΠ Alger Co.) tipped with a 1 mm steel burr; the corneal epithelium was removed to the basement membrane within the established 3 mm boundary Immediately following epithelial removal, the corneas were topically stained with 2% sodium fluorescein (Alcon), washed with balanced saline (BSS) and Time 0 hrs images acquired. After 24 hrs, animals were again anesthetized and Time 24 hrs images were acquired.
Immediately after acquisition of Time 0 images, test articles (5 μl) were topically administered to the ocular surface. Animals received topical administration every 2 hrs for the first 8 hrs of the 24 hrs study time. A 0.4% solution of Hyaluronic Acid (HA) was prepared in phosphate-buffered saline (PBS). Compounds 1 and 5 were prepared in PBS and stored at −70° C. until use. During dosing, compounds were stored at 4° C.
Anesthetized rats (Time 0: xylazine/ketamine; Time 24 hrs: 5% isoflurane gas). The area of the cornea devoid of epithelial cells was stained by topical application of a 2% sodium fluorescein solution (Alcon), followed 10 seconds later with a thorough rinsing with BSS. Images from stained eyes were collected with a Canon digital camera fitted with a macro and close-up lens such that the cornea filled almost the entire image field. A continuous and flash illumination was provided with a Novoflex Cold Light Source Macrolight Plus illuminator. The continuous source was used to focus the eye with the aid of the video output of the Canon camera. A flash lamp illuminator and ring light attached to the camera lens system provided a synchronized and uniform illumination of the corneal surface. Eyes were illuminated and images were captured through a set of filters designed for fluorescein excitation (482±35 nm) and emission (536±40 nm).
Two image files were recorded for each exposure, a JPG-format RGB (red-green-blue) file used for image display and a Canon Raw file containing the raw sensor data. The raw data was extracted to a 16-bit portable greymap file that was subsequently processed with a demosaic function to make an image of only the green pixels containing the fluorescein information. A circular region of interest (ROI) was centered on the cornea and the automated analysis was performed using RatOSIWound v 2.0 software (Alcon). Automated analysis calculated the total fluorescein positive area of a single large spot indicative of the epithelial wound. The % closure at 24 hours (indicated as “% Closure 24 hours” on the ordinate axis of the graphs in FIGS. 1 and 3) was calculated as
while the number of eyes that were totally healed (that is, had no detectable defect; indicated as “Healed 24 hours n=10” on the ordinate axis of the graphs in FIGS. 2 and 4), normalized as number/10 eyes, was also determined
Data were analyzed using an ANOVA with a Dunnett post-hoc test at a 95% confidence interval.

SMILES: COC(=O)CCC[C@H](O)[C@H](O)CO [compound 1]
- % wound closure (% Closure 24 hours) (0.5% w/v dose in PBS): as effective as the positive control 0.4% HA
- normalized number of completely healed eyes (Healed 24 hours n=10) (0.5% w/v dose in PBS): as effective as the positive control 0.4% HA
- % wound closure (% Closure 24 hours) (1% w/v dose in PBS): as effective as the positive control 0.4% HA
- normalized number of completely healed eyes (Healed 24 hours n=10) (1% w/v dose in PBS): as effective as the positive control 0.4% HA

SMILES: O=C([O-])CCC[C@H](O)[C@H](O)CO.[Li+] [compound 5]
- % wound closure (% Closure 24 hours) (1% w/v dose in PBS): as effective as the positive control 0.4% HA
- normalized number of completely healed eyes (Healed 24 hours n=10) (1% w/v dose in PBS): as effective as the positive control 0.4% HA

Source: patent US20140228430A1, “Method of Accelerating Corneal Wound Healing” (Alcon Research, Ltd., priority 2010, published 2014)
